The results in this text go back to ChEMBL document CHEMBL1154991, “Activity-guided isolation of antioxidative constituents of Cotinus coggygria” (J Nat Prod, 2000).

Values after ≈ are worked out from the molar mass of the structure shown.

As usually defined, the IC50 is the midpoint of a concentration-inhibition curve.

The test concerns Radical scavenging activity. In words: Antioxidant activity assessed as DPPH radical scavenging activity after 30 mins. Format: functional. (In general: Loss of DPPH colour is used to gauge radical scavenging.)
Consider `O=C1/C(=C/c2ccc(O)c(O)c2)Oc2cc(O[C@@H]3O[C@H](CO)[C@@H](O)[C@H](O)[C@H]3O)ccc21` [SULFUREIN], for which the IC50 was 18.7 µg/mL (≈ 43.2 µM).

As to `COC(=O)c1cc(O)c(O)c(O)c1` [GALLIC ACID METHYL ESTER], the IC50 stood at 18.6 µg/mL (≈ 101 µM).

As for `O=C1/C(=C/c2ccc(O)c(O)c2)Oc2cc(O)ccc21` [SULFURETIN], the IC50 is 16.1 µg/mL (≈ 59.6 µM).

Regarding `O=C1O[C@H]([C@@H](O)CO)C(O)=C1O` [ASCORBIC ACID], the 50% inhibitory concentration (IC50) came out at 22 µg/mL (≈ 125 µM).

`O=C1/C(=C(/C(=C2\Oc3cc(O)ccc3C2=O)c2ccc(O)c(O)c2)c2ccc(O)c(O)c2)Oc2cc(O)ccc21`: the IC50 came to 9.7 µg/mL (≈ 18 µM).

In the case of `COc1ccc(O)c(C(C)(C)C)c1.COc1ccc(O)cc1C(C)(C)C` [BUTYLATED HYDROXYANISOLE], the IC50 worked out at 21 µg/mL.

In the case of `O=C(O)c1cc(O)c(O)c(O)c1` [GALLIC ACID], the IC50 worked out at 10 µg/mL (≈ 58.8 µM).

Consider `O=C(OC[C@H]1O[C@@H](OC(=O)c2cc(O)c(O)c(O)c2)[C@H](OC(=O)c2cc(O)c(O)c(O)c2)[C@@H](OC(=O)c2cc(O)c(O)c(O)c2)[C@@H]1OC(=O)c1cc(O)c(O)c(O)c1)c1cc(O)c(O)c(O)c1` [PENTAGALLOYL GLUCOSE], for which the concentration for half-maximal inhibition (IC50) stood at 12.6 µg/mL (≈ 13.4 µM).
